The record followed here is article PMC8341910, “Structural and biophysical insights into the mode of covalent binding of rationally designed potent BMX inhibitors” (RSC Chemical Biology, 2020).

Each structure is given as a SMILES string. In brackets after ≈: the same amount, converted by molar mass. Several values for one entry are separate records, joined by “and”; a condition that tells them apart may be missing. Equal values may be shown once. Read-outs that look alike come from different tables or passages of the source.

Data set [1] addresses T1, BMX (Homo sapiens, UniProt P51813).
T1 sequence (P51813 1-675): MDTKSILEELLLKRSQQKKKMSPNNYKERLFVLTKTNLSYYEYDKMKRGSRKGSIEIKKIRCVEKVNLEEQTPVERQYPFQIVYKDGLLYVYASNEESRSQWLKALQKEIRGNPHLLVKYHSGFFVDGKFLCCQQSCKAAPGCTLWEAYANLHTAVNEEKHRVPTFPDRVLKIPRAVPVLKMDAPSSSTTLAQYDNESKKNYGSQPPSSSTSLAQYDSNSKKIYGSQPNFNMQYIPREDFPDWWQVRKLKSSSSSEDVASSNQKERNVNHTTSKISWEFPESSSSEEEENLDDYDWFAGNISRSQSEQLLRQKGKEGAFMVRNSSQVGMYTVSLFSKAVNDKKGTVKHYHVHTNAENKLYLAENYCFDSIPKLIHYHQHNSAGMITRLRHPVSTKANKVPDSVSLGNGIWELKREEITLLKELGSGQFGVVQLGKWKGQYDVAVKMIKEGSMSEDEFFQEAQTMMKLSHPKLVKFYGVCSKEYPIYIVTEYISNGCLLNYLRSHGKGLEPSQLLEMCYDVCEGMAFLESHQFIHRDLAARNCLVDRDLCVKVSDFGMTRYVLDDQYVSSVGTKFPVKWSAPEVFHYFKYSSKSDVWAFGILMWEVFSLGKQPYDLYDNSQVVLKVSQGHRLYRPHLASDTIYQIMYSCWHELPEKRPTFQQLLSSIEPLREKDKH
As to the kind of experiment: BMX biochemical activity assay (HTRF, phosphorylation of a biotinylated peptide).

The nature of data set [2]: Dynamic light scattering, colloidal aggregation. The class given is physicochemical. The note with it: deionized and filtered water (0.1% DMSO), kinetic from dmso stock, measured at 10 µM, 1 µM and 100 nM, 25 °C, read-out: DLS maximum soluble concentration at which no aggregates are observed.
Description: In addition, we measured particle sizes by using dynamic light scattering (DLS).
DLS is measured at 10 µM, 1µM and 100 nM. The maximum soluble
concentration – at which no aggregates are observed - is indicated and the colour code indicates
Dynamic Light Scattering:
Dynamic light scattering (Zetasizer Nano S, Malvern, UK) was used to determine compound colloidal aggregation. […] A 10 mM stock solution of
test compounds was prepared in DMSO, following dilution to deionized and filtered water to
obtain an analyte solution of 10 μM (0.1% DMSO). Colloidal aggregation was measured
through sequential dilutions at 10 μM, 1 μM and 0.1 μM.
Data set [3] addresses T2, recombinant human BMX protein (hBMX) (Homo sapiens, UniProt P51813).
T2 construct: Crystallization, data collection, and structure determination of BMX catalytic domain in; made in house; host or cells: Sf-9 insect cells
As to the kind of experiment: Differential scanning fluorimetry (DSF). The conditions noted are these: for ΔTm at 100 µM: read-out: ΔTm; for Average Tm of BMX with compound: apo-BMX Tm 51.8-52.2 °C. The class given is binding. On the technique in general: DSF heats the sample and reads unfolding from a dye or from intrinsic fluorescence.
Description: We further characterized the binding interaction between JS24–JS27 and BMX by using differential scanning fluorimetry (DSF) and surface plasmon resonance (SPR). Purified recombinant human BMX protein (hBMX) was first subjected to thermal scanning in the absence and presence of JS24–JS27, and the respective protein melting temperature (Tm) calculated.
Differential Scanning Fluorimetry:
DSF was performed in MicroAmp™ EnduraPlate™ Optical 96 -Well Clear Reaction Plates
with Barcode (Applied Biosystems, Life Technologies, California, USA) using a QuantStudio
7 Flex Real-Time PCR System (Applied Biosystems). Pre-incubation of the protein with the
compound for 2 hours at 4 °C was required prior to DSF experiments. The final reaction mixture
(20 μL of total volume) contained 4 μg of His6-BMX, 4-fold of Protein Thermal Shift™ Dye
(Applied Biosystems) diluted in protein buffer solution, and 100 μM of compound. The
temperatures were obtained by taking the midpoint of each transition.

Data set [4] has as its system LNCaP cells. Kind of data set: LNCaP cell growth assay (CellTiter-Glo, 96 h). The conditions noted are these: Homo sapiens, read-out: GI50 LNCaP. The class given is cell-based. (In ATP-based viability assays light output follows the ATP content of the culture.)
Description: (§1) GI50 values are reported in μM and are the mean of three individual experiments performed in triplicate. N.d., non-determined, no growth inhibition observed within the concentrations tested.
(§2) Cellular activity Assay: LNCaP and PC-3 Cell Growth Assay
(§3) Cells were seeded in white, opaque-bottom 96-well plates at 5000 cells/well (LNCaP) or 2000 cells/well (PC-3) in a total volume of 100 µL of culture media.
(§4) fold) in 100 µL media were added to the cells 24 hours later. After 96 hours incubation cellular viability was assessed by CellTiter-Glo® (Promega) according to the manufacturer’s instructions. The values were normalized to vehicle and IC50 was calculated using GraphPad
The test system of a further data set is PC3 cells. Kind of data set: PC-3 cell growth assay (CellTiter-Glo, 96 h). The class given is cell-based. The note with it: Homo sapiens, read-out: GI50 PC3.
The test system of data set [5] is LNCaP cells. Kind of data set: Anti-proliferative co-treatment assays in LNCaP. The data set is classed as cell-based. The note with it: JS24 3 μM, JS25 5 μM, JS26 6 μM, 5 days; for cell viability reduction: co-treatment with Flutamide (50 μM).
The conditions of data set [6]: pH 6.8.
Excerpt: (§5) For assessment of drug permeability, we relied on parallel artificial membrane permeability assay (PAMPA) performed at Pion Inc. with the PAMPA Evolution™ instrument (Table S1, ESI ^†).
(§6) methods (ESOL model1 and Ali et al.2) PAMPA: Pe is effective permeability (x10-6 cm/sec)
(§7) measured directly from assay at pH 6.8 and %R is membrane retention.
(§8) as the average of quadruplicates. Und label refers to compounds with extremely low solubility
(§9) for which UV limits were below the detection limits therefore considered undetected.
(§10) Compounds were labelled as high permeability (green), medium permeability (orange) or low
(§11) Artificial Membrane Permeability (PAMPA):
(§12) The PAMPA Evolution™ instrument was used to determine permeability, at Pion Inc. In
(§13) PAMPA, a sandwich is formed such that each composite well is divided into two chambers,
(§14) measured at pH 6.8 in the donor compartment using low-binding, low UV Prisma buffer. The
(§15) drug-free acceptor compartment was filled with acceptor sink buffer containing a scavenger at
(§16) the start of the test. The proprietary scavenger mimics serum proteins and blood circulation,
(§17) thus creating sink conditions. Aqueous solutions of studied compounds are prepared by diluting
(§18) and thoroughly mixing 3 µL of DMSO stock in 600 µL of Prisma HT buffer. Final
(§19) concentration of organic solvent (DMSO) in aqueous buffer is ≤ 0.5% (v/v). The reference
(§20) solution is identical to the donor at time zero, so that any surface adsorption effects from the
(§21) plastic ware is compensated. The PAMPA sandwich was assembled and allowed to incubate
(§22) for ~15 hours. The solutions in the donor compartment were un-stirred within duration of the
(§23) experiment. Thus, the thickness of the aqueous boundary layer expected to be about 1000 µm.
(§24) The sandwich was then separated, and both the donor and receiver compartments were assayed
(§25) for the amount of drug present by comparison with the UV spectrum obtained from reference
A further data set in a line: in vitro. The conditions noted are these: PAMPA. Background: PAMPA measures passive passage across an artificial lipid membrane.
Data set [7] concerns the target T1, BMX. As to the kind of experiment: Kinetic characterization with ADP-Glo kinase assay. The conditions noted are these: duplicate, mean ± S.D. Set-up: purchased Promega Corporation (USA) V4512. The class given is biochemical. The text has this:
The inactivation of BMX occurs in a two-step process that is governed by two parameters: the affinity of the initial non-covalent binding, KI, and the rate of the subsequent covalent bond-forming reaction with the thiol of the cysteine residue, kinact. […]. […] Thus, taking into account that all the analogues have the same Michael acceptor moiety, the enhanced activity must be a result of the structural modifications introduced in the scaffold. […]
Kinetic characterization using an ADP-GLOTM kinase assay:
The BMX enzyme system (Catalog. V4512) and the ADP-GloTM kinase assay were purchased from Promega Corporation (USA). In each kinase reaction, the concentration of BMX was set to 4.5 ng/µL. The peptide substrate Poly (4:1 Glu, Tyr) and ATP concentrations were set to 0.25 mg/mL and 50 µM, respectively. BMX was pre-incubated with different inhibitor concentrations (10-fold serial dilutions, starting at 1 mM), over different time periods (2 - 60 min), before initiating the kinase reactions. Reactions were started by adding 2.5X Poly E4Y1/ATP mixture. The reactions were carried out in a 384-well plate, stopping all at the same time with the addition of 5 µL of ADP-GloTM reagent, to consume the remaining ATP within 40 min. Then, 10 µL of kinase detection reagent was added into the wells and incubated for 30 min to produce a luminescence signal. The signal was measured using an Infinite M200 […]
observed rate constants for inhibition (kobs), at different inhibitor concentrations, were determined from the slope of a semi-logarithmic plot of inhibition versus time, and re-plotted against inhibitor concentration (nM). The experimental values were fitted into a hyperbolic function using GraphPad Prism 8 ([…]), to obtain the KI, kinact, and kinact/KI, as described previously.12 […]
(Thermo Fisher Scientific) using gold-coated glass needles. […]

The target in the next data set is BTK (Homo sapiens, UniProt Q06187). Kind of data set: BTK biochemical activity assay (radiometric, KinaseProfiler). The conditions noted are these: for IC50: duplicate, mean ± S.D., read-out: BTK inhibition IC50. Set-up: purchased Eurofins DiscoverX KinaseProfiler (contract assay).
Chain of BTK (Q06187 whole entry, species assumed, the tested form may be a part): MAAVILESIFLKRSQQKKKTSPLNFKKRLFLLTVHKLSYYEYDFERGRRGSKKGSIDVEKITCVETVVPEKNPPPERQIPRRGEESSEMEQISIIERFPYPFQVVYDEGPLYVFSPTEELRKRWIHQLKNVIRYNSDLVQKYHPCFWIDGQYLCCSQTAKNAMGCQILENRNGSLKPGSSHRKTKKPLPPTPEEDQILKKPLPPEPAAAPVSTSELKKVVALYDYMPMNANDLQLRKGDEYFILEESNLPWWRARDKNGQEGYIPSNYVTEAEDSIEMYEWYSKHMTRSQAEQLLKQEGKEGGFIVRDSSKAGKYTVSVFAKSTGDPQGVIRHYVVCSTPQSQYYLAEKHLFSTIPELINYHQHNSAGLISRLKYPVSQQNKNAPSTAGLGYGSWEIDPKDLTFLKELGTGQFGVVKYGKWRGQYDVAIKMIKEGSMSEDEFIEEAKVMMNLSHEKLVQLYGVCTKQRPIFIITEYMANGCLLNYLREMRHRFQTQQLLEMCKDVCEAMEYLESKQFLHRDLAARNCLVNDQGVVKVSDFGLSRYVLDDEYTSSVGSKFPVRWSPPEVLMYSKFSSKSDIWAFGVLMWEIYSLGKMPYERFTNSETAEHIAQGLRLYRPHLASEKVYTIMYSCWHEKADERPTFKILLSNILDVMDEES
Data set [8] has as its target NanoLuc®-BMX fusion vector in HEK293 cells (Homo sapiens, UniProt P51813). Kind of data set: NanoBRET TE intracellular kinase assay. The data set is classed as cell-based. The note with it: HEK293 transiently transfected with BMX; 1 h; duplicate, mean ± S.D.; read-out: intracellular target engagement IC50.
Description: Target Engagement Intracellular Kinase Assay:
In-cell target engagement was performed at the Reaction Biology Corporation (USA) using the NanoBRETTM technology. Very briefly, HEK296 cells, purchased from ATCC, were
with the reference compound Dasatinib, for 1 hour of incubation. Compounds were diluted 10 times with 3-fold dilution, starting at 1 µM. Curve fits were performed only when % NanoBret
determined using the GraphPad Prism 8 (USA).
The next data set addresses ITK (Homo sapiens, UniProt Q08881). Kind of data set: KINOMEscan binding. The note with it: read-out: % Ctrl ITK.
A further data set has as its target ERBB2 (Homo sapiens, UniProt P04626). As to the kind of experiment: KINOMEscan binding. The note with it: read-out: % Ctrl ERBB2.
For a further data set, the target named is YES1 (Homo sapiens, UniProt P07947). As to the kind of experiment: KINOMEscan binding. The note with it: read-out: % Ctrl YES1.
Chain of YES1 (P07947 whole entry): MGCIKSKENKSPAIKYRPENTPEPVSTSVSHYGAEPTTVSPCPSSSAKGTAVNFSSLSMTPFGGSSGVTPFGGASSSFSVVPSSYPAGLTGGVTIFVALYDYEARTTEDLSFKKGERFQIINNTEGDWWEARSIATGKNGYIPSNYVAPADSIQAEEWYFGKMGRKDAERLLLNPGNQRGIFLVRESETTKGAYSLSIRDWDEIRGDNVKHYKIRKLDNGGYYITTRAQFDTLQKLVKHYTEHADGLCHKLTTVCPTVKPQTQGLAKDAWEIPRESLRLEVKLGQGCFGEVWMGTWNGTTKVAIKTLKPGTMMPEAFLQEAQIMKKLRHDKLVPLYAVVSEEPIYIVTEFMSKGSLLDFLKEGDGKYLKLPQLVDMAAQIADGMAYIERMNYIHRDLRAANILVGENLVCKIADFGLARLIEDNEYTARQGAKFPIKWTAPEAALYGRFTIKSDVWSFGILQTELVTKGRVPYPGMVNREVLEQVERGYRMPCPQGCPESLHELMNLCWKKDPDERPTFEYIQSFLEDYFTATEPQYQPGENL
A further data set addresses STK11 (Homo sapiens, UniProt Q15831). Kind of data set: KINOMEscan binding. The note with it: read-out: % Ctrl STK11.
The target in the next data set is PDPK1 (Homo sapiens, UniProt O15530). As to the kind of experiment: KINOMEscan binding. The conditions noted are these: read-out: % Ctrl PDPK1.
Chain of PDPK1 (O15530 whole entry): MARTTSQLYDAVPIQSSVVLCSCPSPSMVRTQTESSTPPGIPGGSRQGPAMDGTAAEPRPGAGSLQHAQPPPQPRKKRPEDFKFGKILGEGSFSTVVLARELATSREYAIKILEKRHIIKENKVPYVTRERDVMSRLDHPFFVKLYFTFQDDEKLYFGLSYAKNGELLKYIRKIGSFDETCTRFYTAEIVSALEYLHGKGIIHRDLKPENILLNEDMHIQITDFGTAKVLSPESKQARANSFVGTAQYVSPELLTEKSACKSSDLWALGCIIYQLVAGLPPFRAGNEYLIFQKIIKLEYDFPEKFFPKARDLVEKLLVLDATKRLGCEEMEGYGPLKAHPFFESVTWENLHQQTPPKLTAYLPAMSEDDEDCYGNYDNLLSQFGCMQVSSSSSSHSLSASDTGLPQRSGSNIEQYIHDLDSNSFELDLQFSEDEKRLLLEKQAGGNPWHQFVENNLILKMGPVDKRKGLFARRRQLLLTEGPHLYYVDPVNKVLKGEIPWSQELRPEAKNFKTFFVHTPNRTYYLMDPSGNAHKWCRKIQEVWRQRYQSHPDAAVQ
Where [9] appears, read: Experiment 4 of Fig. S3 = Fig. 1b, duplicate, mean ± S.D., read-out: BMX inhibition IC50.
[10] abbreviates: co-treatment with LY294002 (3 μM).
[11] abbreviates: pH 6.8, PAMPA/Pe effective permeability.

Chain of STK11 (Q15831 whole entry): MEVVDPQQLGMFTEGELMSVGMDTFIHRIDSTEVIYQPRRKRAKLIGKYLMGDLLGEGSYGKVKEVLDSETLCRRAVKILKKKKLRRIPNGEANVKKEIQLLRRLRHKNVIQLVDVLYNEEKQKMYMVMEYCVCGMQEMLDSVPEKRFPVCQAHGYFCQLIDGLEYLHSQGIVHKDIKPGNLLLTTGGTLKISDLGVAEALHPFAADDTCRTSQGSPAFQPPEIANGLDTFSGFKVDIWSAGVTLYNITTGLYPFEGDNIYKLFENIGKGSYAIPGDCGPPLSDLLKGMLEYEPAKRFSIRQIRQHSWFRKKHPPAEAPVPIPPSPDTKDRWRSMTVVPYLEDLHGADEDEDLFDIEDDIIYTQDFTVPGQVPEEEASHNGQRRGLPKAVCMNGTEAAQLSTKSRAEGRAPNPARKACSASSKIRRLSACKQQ
Chain of ERBB2 (P04626 23-1255): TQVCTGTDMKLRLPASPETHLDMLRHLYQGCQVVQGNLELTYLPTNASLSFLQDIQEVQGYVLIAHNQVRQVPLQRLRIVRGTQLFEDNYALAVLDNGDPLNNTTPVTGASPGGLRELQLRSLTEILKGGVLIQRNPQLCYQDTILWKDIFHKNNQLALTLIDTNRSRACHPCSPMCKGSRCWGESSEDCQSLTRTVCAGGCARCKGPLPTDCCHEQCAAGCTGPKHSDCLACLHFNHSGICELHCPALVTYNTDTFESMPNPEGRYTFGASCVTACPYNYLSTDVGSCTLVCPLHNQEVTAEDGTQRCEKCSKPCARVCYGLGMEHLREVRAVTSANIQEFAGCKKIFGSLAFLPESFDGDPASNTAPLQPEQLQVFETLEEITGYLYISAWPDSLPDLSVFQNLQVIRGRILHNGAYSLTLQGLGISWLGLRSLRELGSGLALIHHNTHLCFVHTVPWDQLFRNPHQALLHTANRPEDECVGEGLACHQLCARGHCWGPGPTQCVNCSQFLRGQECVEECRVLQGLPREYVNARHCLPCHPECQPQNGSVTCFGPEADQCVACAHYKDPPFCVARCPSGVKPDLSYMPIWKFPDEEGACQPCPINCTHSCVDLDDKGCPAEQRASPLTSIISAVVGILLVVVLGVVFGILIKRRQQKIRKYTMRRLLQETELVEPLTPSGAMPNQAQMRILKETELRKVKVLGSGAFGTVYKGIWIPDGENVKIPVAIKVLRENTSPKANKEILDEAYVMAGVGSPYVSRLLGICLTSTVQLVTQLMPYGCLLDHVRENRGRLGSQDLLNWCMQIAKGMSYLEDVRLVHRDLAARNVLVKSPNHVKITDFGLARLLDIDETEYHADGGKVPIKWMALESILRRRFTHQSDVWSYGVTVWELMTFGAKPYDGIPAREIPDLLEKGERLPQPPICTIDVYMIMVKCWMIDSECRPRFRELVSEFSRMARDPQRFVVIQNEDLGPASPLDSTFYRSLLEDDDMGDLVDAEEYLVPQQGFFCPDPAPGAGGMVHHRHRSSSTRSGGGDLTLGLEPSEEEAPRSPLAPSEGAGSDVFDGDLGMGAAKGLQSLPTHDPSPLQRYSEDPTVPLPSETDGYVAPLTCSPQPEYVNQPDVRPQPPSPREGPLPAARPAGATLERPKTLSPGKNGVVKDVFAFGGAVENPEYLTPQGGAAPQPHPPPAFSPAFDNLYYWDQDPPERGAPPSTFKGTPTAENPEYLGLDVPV
Chain of ITK (Q08881 whole entry): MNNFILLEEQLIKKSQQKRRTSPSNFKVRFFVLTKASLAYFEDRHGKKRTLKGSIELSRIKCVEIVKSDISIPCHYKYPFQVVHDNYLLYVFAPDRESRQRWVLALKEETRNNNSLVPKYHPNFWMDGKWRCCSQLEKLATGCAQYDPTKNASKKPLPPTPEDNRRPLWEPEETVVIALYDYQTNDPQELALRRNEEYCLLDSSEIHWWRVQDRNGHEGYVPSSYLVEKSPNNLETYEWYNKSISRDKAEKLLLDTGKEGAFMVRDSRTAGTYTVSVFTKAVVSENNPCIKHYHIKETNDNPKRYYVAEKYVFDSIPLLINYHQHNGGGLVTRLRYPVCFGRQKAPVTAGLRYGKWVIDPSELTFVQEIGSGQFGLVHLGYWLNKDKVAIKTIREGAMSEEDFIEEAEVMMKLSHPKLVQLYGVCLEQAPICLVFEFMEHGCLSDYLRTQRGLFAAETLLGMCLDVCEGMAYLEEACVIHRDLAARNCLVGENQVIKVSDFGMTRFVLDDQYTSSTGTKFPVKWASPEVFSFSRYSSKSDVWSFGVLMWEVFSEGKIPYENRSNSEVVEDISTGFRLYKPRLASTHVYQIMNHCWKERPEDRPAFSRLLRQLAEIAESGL
Description for ERBB2: (§26) Therefore, we included the whole TEC, EGFR and JAK family in our screening, and the Src family and Lkb1, which also have a cysteine within the same sequence alignment.
(§27) Kinome selectivity was performed with DiscoverX KINOMEscan™ technology.
Description for ITK: as §26, §27
Description for PC3 cells: as §1, §2, §3, §4
Description for PDPK1: (§28) Therefore, we included the whole TEC, EGFR and JAK family in our screening, and the Src family and Lkb1, which also have a cysteine within the same sequence alignment. We also included kinases involved in upstream (Src, FAK, PI3K, mTOR, PDK1) and downstream (Akt, PAK1, TAM) regulation of BMX signaling pathway and non-receptor tyrosine protein kinase Abl.
as §27
Description for STK11: as §28, §27
Description for YES1: as §26, §27
Excerpt for in vitro: as §5, §6, §7, §8, §9, §10, §11, §12, §13, §14, §15, §16, §17, §18, §19, §20, §21, §22, §23, §24, §25

As to `C=CC(=O)Nc1cc(-n2c(=O)ccc3cnc4cc(-c5ccc(NS(C)(=O)=O)cc5)ccc4c32)ccc1C` [JS24], the IC50 (in general, the midpoint of a concentration-inhibition curve) turned out to be 4.1 ± 0.3 nM on BMX [1] (Experiment 2 of Fig. S3, control commercial BMX-IN-1, read-out: BMX IC50); 7.5 nM at BMX [1] (setting [9]); 11.1 ± 0.8 nM on BTK. On BMX [1] (ligand efficiency), the “LE (BMX)” value worked out at 0.29. For the same compound, at BMX [1] (lipophilic efficiency), the “LipE (BMX)” value turned out to be 4.17. Besides, in data set [2], the solubility came out at 1 µM (≈ 0.525 µg/mL). Besides, the shift in melting temperature (ΔTm) (as a rule, the change in melting temperature against a reference sample) at 100 µM in [3] (100 μM compound, versus apo-BMX) came to 11.34 ± 0.01 °C. Further, in [3] (100 μM compound), the “Average Tm of BMX with compound” value is 63.57±0.01 °C. The GI50 (as a rule, the concentration at which growth is held to half of that of the control) turned out to be 1500 nM in the data set on LNCaP cells [4] (96-well plates, mean of three experiments in triplicate) and 11400 ± 4100 nM in the data set with PC3 cells (PC-3, 96 h, 96-well plates, N.d. = no growth inhibition observed within the concentrations tested). Moreover, the “decrease in cell viability” value in the data set on LNCaP cells [5] (co-treatment with AKT1/2 (1 μM), relative to control AKT1/2) worked out at 48%; with LNCaP cells [5] (setting [10]), 35%. Also, the cell viability reduction in the data set with LNCaP cells [5] was found to be 44%. The compound also had a PAMPA/%R membrane retention in data set [6] of 13±1%. Further, the Papp (in general, a coefficient for how fast a substance crosses the barrier) in “in vitro” (pH 6.8, PAMPA permeability) came to 6.8 ×10⁻⁶ cm/s; in the data set “in vitro” (setting [11]), 6.8 ± 0.4 ×10⁻⁶ cm/s. The k inact at BMX [7] was 0.335 min⁻¹ and 0.335 ± 0.001 min⁻¹. Moreover, the “BTK potency gain (fold) relative to BMX-IN-1” value on BTK is recorded as 33 fold. Also, at BTK (ligand efficiency), the “LE (BTK)” value is 0.29. Moreover, the “LipE (BTK)” value on BTK (lipophilic efficiency) is recorded as 4.00.
For the compound `C=CC(=O)Nc1cc(C)cc(-n2c(=O)ccc3cnc4cc(-c5ccc(NS(C)(=O)=O)cc5)ccc4c32)c1` [JS25], the IC50 at BMX [1] (setting [9]) was 3.5 nM; in data set [8], 44.8 nM and 45 nM; at BTK it was 5.8 ± 0.04 nM. The solubility in data set [2] was 0.1 µM (≈ 0.0525 µg/mL). Moreover, the “Average Tm of BMX with compound” value in data set [3] (100 μM compound) is 61.43±0.48 °C. In addition, the ΔTm at 100 µM in data set [3] stood at 9.3 ± 0.48 °C. The 50% growth inhibitory concentration (GI50) with LNCaP cells [4] is 6600 nM; with PC3 cells (PC-3, 96 h), 12100 ± 700 nM. The cell viability reduction in the data set on LNCaP cells [5] came to 63%. Besides, in the data set on LNCaP cells [5] (setting [10]), the “decrease in cell viability” value amounted to 59%. In addition, in data set [6], the PAMPA/%R membrane retention is 10±18%. Further, the apparent permeability coefficient (Papp) in the data set “in vitro” (pH 6.8, PAMPA permeability) stood at 3.8 ×10⁻⁶ cm/s; in the data set “in vitro” (setting [11]), 3.8 ± 1.6 ×10⁻⁶ cm/s. In addition, the remaining binding at 1 µM at ITK amounted to 4.7%; at ERBB2, 89%; on YES1, 85%; at STK11, 52%; at PDPK1 it was 92%.
